In patent EP2808337A1, “(E)-3-Aryl-3-oxoprop-1-enyl-2-phosphonic acid and its derivatives, methods for their preparation and their use” (Centrum Badan Molekularnych I Makromolekularnych Pan, priority 2013, dated 2014):

Experiments:
[1] = system: DNA plasmid pcDNA 3.1 HisC (8.2 kb); assay: Digestion of plasmid DNA with restriction enzyme Bam H1 after incubation with compounds (agarose gel electrophoresis); format: biochemical; conditions: compound 2 or 20 µM, overnight at 37°C with 0.6 µg plasmid, then BamH1 2U/sample for 3 hours at 37°C; gel not shown
Protocol: The impact of compounds 1a and 1b has been tested on the digestion of DNA plasmid pcDNA 3.1 HisC (8.2 kb) with restriction enzyme Bam H1.
1. For this purpose, pcDNA 3.1 HisC plasmid DNA (0.6 µg) was dissolved in 1×BamH1 buffer and incubated overnight at 37°C with the following reference or test compounds:
The concentration of the reference and test compounds in each sample was 2 or 20 µM.
2. After overnight incubation, the reaction mixture was digested with BamH1 restriction enzyme (2U/sample) for 3 hours at 37°C. The total volume of the samples was 10 µL.
3. The reaction products were applied on 1% agarose gel and electrophoresis was performed in TAE buffer.

[2] = system: synthetic DNA duplex (23 nt- 5'TCTTCAAGAATTCAGGTCCTGAT 3'); assay: Circular dichroism (CD) spectra of synthetic DNA duplex with test compounds; format: binding; conditions: immediately after addition; DNA duplex 2µM, compound 20µM, DMSO 0.2%, PBS, 23°C, 200-320 nm; Figure 1
Protocol: The ability of the test compounds 1a and 1b to interact with DNA was tested by the circular dichroism (CD) technique.
1. For this purpose, samples were prepared in PBS buffer containing: […] of synthetic DNA duplex (23 nt- 5'TCTTCAAGAATTCAGGTCCTGAT 3') or DNA of bovine thymus (0.2 mg/ml) and test compounds at a concentration of 20µM or 40µM for synthetic DNA duplex sample and thymus DNA sample, respectively. The samples contained 0.2% or 0.4% DMSO (for synthetic DNA duplex sample and thymus DNA sample, respectively), which is a solvent of the test compounds.
2. CD spectra (in the range from 200 nm to 320 nm) were recorded immediately after addition of the test compounds as well as after 1.5 h incubation. The measurement was carried out at 23°C in a quartz cuvette (optical path length 0.5 cm) using a spectroscope CD6 (Jobin-Yvon, France).
3. CD spectra of DNA incubated with the test compounds were compared with the control spectrum (spectrum was recorded for a sample of DNA (2µM or 0.2 mg/ml) in the presence of DMSO (final concentration of 0.2% or 0.4%).

SMILES | interaction with plasmid DNA: resistance to digestion by the endonucleolytic enzyme Bam H1 [1] | changes of CD spectrum of duplex DNA compared to control (duplex DNA + DMSO) [2]
COP(=O)(OC)/C(=C/c1ccc2ccc3cccc4ccc1c2c34)C(=O)c1ccc2c(c1)OCO2 [compound 1a] | increasing its resistance to digestion | changes compared to the control sample
O=C(/C(=C/c1ccc2ccc3cccc4ccc1c2c34)P(=O)(O)O)c1ccc2c(c1)OCO2 [compound 1b, (Z)-3-(benzo[d][1,3]dioxol-5-yl)-1-(pyrene-1-yl)-3-oxoprop-1-en-2-ylphosphonic acid] | increasing its resistance to digestion | changes compared to the control sample
COc1cccc2c1C(=O)c1c(O)c3c(c(O)c1C2=O)C[C@@](O)(C(C)=O)C[C@@H]3O[C@H]1C[C@H](N)[C@H](O)[C@H](C)O1 [Daunorubicin, reference compound] | increasing its resistance to digestion | changing significantly its structure
